# Read-outs that look alike come from different tables or passages of the source.
# Tests used:
# human TLR7 = human TLR7 (Homo sapiens (Human), UniProt Q9NYK1); test: TLR7 inhibition reporter assay (HEK-Blue SEAP); assay type: cell-based; conditions: HEK-Blue cells overexpressing human TLR7, gardiquimod 7.5 μM stimulation
# Procedure: HEK-Blue™-cells (Invivogen) overexpressing human TLR7, TLR8 or TLR9 receptors were used for screening inhibitors of these receptors using an inducible SEAP (secreted embryonic alkaline phosphatase) reporter gene under the control of the IFN-β minimal promoter fused to five NF-κB and AP-1-binding sites. Briefly, cells are seeded into Greiner 384 well plates (15000 cells per well for TLR7, 20,000 for TLR8 and 25,000 for TLR9) and then treated with test compounds in DMSO to yield a final dose response concentration range of 0.05 nM-50 μM. After a 30 minute compound pre-treatment at room temperature, the cells are then stimulated with a TLR7 ligand (gardiquimod at a final concentration of 7.5 μM), TLR8 ligand (R848 at a final concentration of 15.9 μM) or TLR9 ligand (ODN2006 at a final concentration of 5 nM) to activate NF-κB and AP-1 which induce the production of SEAP. After a 22 hour incubation at 37° C., 500 CO2, SEAP levels are determined with the addition of HEK-Blue™ Detection reagent (Invivogen), a cell culture medium that allows for detection of SEAP, according to manufacturer's specifications.
# human TLR9 = human TLR9 (Homo sapiens (Human), UniProt Q9NR96); test: TLR9 inhibition reporter assay (HEK-Blue SEAP);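 also: SEAP driven by IFN-β minimal promoter carrying five NF-κB and AP-1 sites, 22 h at 37 °C, compounds 0.05 nM–50 µM, inhibition scaled between agonist-plus-DMSO and reference-inhibitor wells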
# Chain of human TLR9 (Q9NR96 26-1032): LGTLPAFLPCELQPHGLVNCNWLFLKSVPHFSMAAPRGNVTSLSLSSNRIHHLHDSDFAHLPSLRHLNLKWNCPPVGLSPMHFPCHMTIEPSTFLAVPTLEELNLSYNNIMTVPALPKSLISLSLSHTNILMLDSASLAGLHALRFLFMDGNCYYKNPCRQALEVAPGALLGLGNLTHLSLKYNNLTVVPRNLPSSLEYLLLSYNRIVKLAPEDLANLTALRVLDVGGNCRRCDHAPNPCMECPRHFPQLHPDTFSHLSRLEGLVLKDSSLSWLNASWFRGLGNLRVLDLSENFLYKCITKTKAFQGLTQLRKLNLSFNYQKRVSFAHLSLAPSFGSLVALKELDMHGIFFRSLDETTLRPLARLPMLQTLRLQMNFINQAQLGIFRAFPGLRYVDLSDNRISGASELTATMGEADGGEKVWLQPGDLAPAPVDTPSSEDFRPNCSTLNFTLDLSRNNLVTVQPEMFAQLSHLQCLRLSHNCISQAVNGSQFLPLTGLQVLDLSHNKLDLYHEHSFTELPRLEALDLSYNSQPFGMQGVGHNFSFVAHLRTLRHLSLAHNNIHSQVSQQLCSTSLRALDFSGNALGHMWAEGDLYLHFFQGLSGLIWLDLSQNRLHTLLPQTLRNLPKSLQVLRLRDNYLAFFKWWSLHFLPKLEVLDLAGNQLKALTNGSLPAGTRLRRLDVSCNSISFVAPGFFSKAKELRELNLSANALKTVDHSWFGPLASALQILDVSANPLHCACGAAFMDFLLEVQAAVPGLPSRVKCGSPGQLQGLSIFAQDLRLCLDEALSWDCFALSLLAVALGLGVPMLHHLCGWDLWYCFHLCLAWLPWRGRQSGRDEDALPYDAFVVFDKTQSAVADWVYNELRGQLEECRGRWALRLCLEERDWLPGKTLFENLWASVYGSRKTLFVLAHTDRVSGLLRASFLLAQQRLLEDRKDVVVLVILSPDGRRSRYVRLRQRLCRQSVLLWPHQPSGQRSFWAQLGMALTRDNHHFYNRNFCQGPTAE
# human TLR8 = human TLR8 (Homo sapiens (Human), UniProt Q9NR97); test: TLR8 inhibition reporter assay (HEK-Blue SEAP);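 also: SEAP driven by IFN-β minimal promoter with five NF-κB and AP-1 sites, compounds tested 0.05 nM to 50 µM, 22 h incubation, inhibition relative to agonist plus DMSO wells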
# Chain of human TLR8 (Q9NR97 27-1041): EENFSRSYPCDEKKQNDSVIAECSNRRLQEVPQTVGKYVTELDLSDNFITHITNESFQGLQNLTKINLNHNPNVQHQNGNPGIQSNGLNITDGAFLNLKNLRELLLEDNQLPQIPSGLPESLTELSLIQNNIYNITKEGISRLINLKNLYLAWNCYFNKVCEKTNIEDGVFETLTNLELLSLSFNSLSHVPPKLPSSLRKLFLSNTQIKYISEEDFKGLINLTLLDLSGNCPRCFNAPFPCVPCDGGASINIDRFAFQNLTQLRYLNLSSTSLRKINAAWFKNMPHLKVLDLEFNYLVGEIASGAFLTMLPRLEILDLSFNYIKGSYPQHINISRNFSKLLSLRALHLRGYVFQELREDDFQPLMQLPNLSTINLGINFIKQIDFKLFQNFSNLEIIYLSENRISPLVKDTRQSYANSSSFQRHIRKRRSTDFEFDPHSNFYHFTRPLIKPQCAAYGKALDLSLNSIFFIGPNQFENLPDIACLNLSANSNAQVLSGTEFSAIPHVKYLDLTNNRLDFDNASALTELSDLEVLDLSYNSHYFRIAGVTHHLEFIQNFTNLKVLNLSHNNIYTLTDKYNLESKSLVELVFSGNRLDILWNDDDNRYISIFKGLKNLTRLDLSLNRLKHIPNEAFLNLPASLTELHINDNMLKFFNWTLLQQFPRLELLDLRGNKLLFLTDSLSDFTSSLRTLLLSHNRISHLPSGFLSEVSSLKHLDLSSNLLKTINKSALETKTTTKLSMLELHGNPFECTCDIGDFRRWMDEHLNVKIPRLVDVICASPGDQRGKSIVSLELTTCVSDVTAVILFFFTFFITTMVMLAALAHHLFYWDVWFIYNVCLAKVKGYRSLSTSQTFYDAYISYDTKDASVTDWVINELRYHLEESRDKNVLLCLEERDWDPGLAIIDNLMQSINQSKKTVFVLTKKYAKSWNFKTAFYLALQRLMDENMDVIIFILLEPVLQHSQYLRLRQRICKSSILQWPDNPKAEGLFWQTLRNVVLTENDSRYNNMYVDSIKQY
# [1] = read-out: TLR9 IC50; HEK-Blue cells overexpressing human TLR9; ODN2006 5 nM stimulation; SEAP reporter
# [2] = read-out: TLR8 IC50; HEK-Blue cells overexpressing human TLR8; R848 15.9 μM stimulation; SEAP reporter
# [3] = read-out: TLR9 IC50; HEK-Blue cells overexpressing human TLR9, ODN2006 5 nM stimulation, SEAP reporter
# [4] = read-out: TLR8 IC50; HEK-Blue cells overexpressing human TLR8, R848 15.9 μM stimulation, SEAP reporter
# Chain of human TLR7 (Q9NYK1 27-1049): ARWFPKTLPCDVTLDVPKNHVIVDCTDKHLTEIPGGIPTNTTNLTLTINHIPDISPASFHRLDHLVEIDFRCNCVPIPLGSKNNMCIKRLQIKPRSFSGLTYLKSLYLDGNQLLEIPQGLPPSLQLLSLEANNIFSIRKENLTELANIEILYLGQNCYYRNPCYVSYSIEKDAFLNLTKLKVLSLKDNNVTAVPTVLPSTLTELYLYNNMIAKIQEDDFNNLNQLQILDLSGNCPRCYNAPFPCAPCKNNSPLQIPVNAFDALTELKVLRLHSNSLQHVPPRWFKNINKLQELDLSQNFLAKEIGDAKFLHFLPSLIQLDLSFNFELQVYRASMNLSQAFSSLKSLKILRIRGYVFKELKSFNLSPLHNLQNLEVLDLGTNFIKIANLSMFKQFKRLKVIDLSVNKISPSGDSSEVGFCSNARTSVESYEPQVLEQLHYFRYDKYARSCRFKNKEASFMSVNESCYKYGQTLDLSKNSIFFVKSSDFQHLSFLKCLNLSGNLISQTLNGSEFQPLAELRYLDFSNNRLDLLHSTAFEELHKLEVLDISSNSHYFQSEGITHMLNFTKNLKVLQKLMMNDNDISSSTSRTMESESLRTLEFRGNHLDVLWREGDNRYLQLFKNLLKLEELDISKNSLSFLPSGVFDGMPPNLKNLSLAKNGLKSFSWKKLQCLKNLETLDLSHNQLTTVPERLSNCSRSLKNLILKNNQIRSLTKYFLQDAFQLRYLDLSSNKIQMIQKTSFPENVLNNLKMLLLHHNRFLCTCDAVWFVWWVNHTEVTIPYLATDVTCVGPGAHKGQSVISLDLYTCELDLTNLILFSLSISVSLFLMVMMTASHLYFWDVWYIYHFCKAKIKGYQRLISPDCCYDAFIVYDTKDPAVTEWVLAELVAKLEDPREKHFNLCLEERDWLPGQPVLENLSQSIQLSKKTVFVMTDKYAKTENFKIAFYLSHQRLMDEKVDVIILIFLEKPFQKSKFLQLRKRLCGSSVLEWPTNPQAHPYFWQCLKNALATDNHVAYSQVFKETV
Structure (SMILES),IC50 (human TLR7),IC50 (human TLR9; [1]),IC50 (human TLR8; [2]),IC50 (human TLR9; [3]),IC50 (human TLR8; [4])
COc1cc(-c2[nH]c3cnc(C4CCN(C5CCOCC5)CC4)c(F)c3c2C(C)C)cn2ncnc12 [Example 217],3.4 nM,7600 nM,4.4 nM,–,–
COc1cc(-c2[nH]c3cnc(C4CCC(NCC5(C)COC5)C4)cc3c2C(C)C)cn2ncnc12 (stereo not drawn) [Example 59],15 nM,–,–,197 nM,4.7 nM
Cc1c(N2CCC(N3CC4(COC4)C3)CC2)ncc2[nH]c(-c3cc(C)c4ncnn4c3)c(C(C)C)c12 [Example 53],0.5 nM,–,–,1390 nM,2 nM
COCCN1CCN(c2ncc3[nH]c(-c4cc(OC)c5ncnn5c4)c(C(C)C)c3c2F)[C@H](C)C1 [Example 444],5 nM,–,–,19900 nM,6.7 nM
COc1cc(-c2[nH]c3cnc(C4CCN(C5COC5)CC4)c(F)c3c2C(C)C)cn2ncnc12 [Example 38],2.8 nM,–,–,13100 nM,12 nM
CNC(=O)CN1CCC(c2ncc3[nH]c(-c4cc(C)c5ncnn5c4)c(C(C)C)c3c2F)CC1 [Example 181],1.5 nM,–,–,6550 nM,5 nM
CNC(=O)CN(C)C1CCC(c2cc3c(C(C)C)c(-c4cc(OC)c5ncnn5c4)[nH]c3cn2)CC1 (stereo not drawn) [Example 338],3.4 nM,–,–,1110 nM,30 nM
COc1cc(-c2[nH]c3cnc(C4CCC(NC(C)C)CC4)c(F)c3c2C(C)C)cn2ncnc12 (stereo not drawn) [Example 159],3.4 nM,–,–,455 nM,4.5 nM
COc1cc(-c2[nH]c3cnc(C4CCC(NC[C@@H](F)C(C)(C)O)CC4)c(C)c3c2C(C)C)cn2ncnc12 (stereo partly drawn) [Example 117],28 nM,–,–,868 nM,41 nM
COc1cc(-c2[nH]c3cnc(N4CCN(CCS(C)(=O)=O)CC4)c(C)c3c2C(C)C)cn2ncnc12 [Example 186],12 nM,–,–,26500 nM,6.6 nM
COc1cc(-c2[nH]c3cnc(C4CCC(N5CC6(COC6)C5)CC4)c(C)c3c2C(C)C)cn2ncnc12 (stereo not drawn) [Example 245],6.3 nM,–,–,257 nM,47 nM
Cc1cc(-c2[nH]c3cnc(N4CCC(NC5CCOCC5)CC4)c(F)c3c2C(C)C)cn2ncnc12 [Example 220],0.74 nM,4540 nM,0.35 nM,–,–
COc1cc(-c2[nH]c3cnc(N4CCC(N(C)C5COC5)CC4)cc3c2C(C)C)cn2ncnc12 [Example 314],4.3 nM,–,–,3700 nM,1.5 nM
Cc1cc(-c2[nH]c3cnc(C4CCNCC4)c(F)c3c2C(C)C)cn2ncnc12 [Example 184],1.9 nM,–,–,1870 nM,7.9 nM
Cc1c(-c2[nH]c3cnc(C4CCC(N5CCC5)CC4)c(F)c3c2C(C)C)cn2ncnc2c1C (stereo not drawn) [Example 233],2.7 nM,1160 nM,3.6 nM,–,–
COc1cc(-c2[nH]c3cnc(N4CCN(C(=O)CN(C)C)CC4)c(F)c3c2C(C)C)cn2ncnc12 [compound 368],1.3 nM,–,–,5890 nM,2.3 nM
Cc1cc(-c2[nH]c3cnc(C4CCC(NCC(C)(C)O)CC4)c(F)c3c2C(C)C)cn2ncnc12 (stereo not drawn) [Example 49],0.46 nM,–,–,2430 nM,0.62 nM
COc1cc(-c2[nH]c3cnc(C4CCC(NC(C)C)CC4)cc3c2C(C)C)cn2ncnc12 (stereo not drawn) [Example 323],4.5 nM,–,–,258 nM,20 nM
COc1cc(-c2[nH]c3cnc(N4CCN(CC(=O)N(C)C)CC4)c(F)c3c2C(C)C)cn2ncnc12 [Example 360],2.9 nM,–,–,23000 nM,1.5 nM
Cc1c(-c2[nH]c3cnc(C4CCC(NCC(F)F)CC4)cc3c2C(C)C)cn2ncnc2c1C (stereo not drawn) [Example 336],8.8 nM,–,–,4000 nM,36 nM
COc1cc(-c2[nH]c3cnc(N4CCN(CCS(C)(=O)=O)C[C@H]4C)c(F)c3c2C(C)C)cn2ncnc12 [Example 450],12 nM,> 50000 nM,39 nM,–,–
Cc1c(-c2[nH]c3cnc(N4CCC(N(C)C(C)C)CC4)c(F)c3c2C(C)C)cn2ncnc2c1C [Example 52],0.98 nM,–,–,1860 nM,0.42 nM
Cc1c(-c2[nH]c3cnc(C4CCC(NC[C@@H](F)C(C)(C)O)CC4)c(F)c3c2C(C)C)cn2ncnc2c1C (stereo partly drawn) [Example 175],23 nM,–,–,7940 nM,6.4 nM
COc1cc(-c2[nH]c3cnc(N4CCC(NC5COC5)CC4)c(C)c3c2C(C)C)cn2ncnc12 [Example 137],0.63 nM,–,–,3160 nM,0.9 nM
COc1cc(-c2[nH]c3cnc(N4CCC(NC5COC5)CC4)cc3c2C(C)C)cn2ncnc12 [Example 320],4.4 nM,–,–,3010 nM,2 nM
